Reference: article PMC11587516 (ACS Chemical Neuroscience, 2024)
Changes are numbered by the printed parent chain. pEC50, pIC50: −log10 of the molar value. Like-named read-outs stand apart in the source and are kept apart here.

Assays:
hBGT1 = biological target: T1, hBGT1 (Homo sapiens, UniProt P48065); assay: [3H]GABA uptake assay, CHO cells stably expressing hBGT1; assay type: cell-based; conditions: read-out: inhibition of [3H]GABA uptake; screening concentration 100 μM; CHO cells
T1 construct: expressed in transfected cells
T1 sequence (P48065 1-614): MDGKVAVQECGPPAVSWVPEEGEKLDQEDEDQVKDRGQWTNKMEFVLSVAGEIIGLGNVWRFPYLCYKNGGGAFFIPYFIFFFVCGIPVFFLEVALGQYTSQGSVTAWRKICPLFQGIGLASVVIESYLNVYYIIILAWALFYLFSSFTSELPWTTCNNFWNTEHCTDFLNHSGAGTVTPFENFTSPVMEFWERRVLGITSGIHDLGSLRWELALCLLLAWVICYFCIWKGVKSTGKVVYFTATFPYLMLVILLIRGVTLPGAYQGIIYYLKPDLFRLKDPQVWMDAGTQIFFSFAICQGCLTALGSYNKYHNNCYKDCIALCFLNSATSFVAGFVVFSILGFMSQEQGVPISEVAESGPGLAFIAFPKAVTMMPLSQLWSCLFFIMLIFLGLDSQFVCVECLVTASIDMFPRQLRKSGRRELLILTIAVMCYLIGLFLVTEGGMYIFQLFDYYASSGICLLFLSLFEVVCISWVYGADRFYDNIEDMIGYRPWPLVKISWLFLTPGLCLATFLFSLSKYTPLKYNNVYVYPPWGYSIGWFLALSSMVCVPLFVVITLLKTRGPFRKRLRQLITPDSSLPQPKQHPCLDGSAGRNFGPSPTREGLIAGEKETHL
Procedure: All selected compounds were tested for their ability to inhibit human BGT1 (hBGT1) function.
The CHO cells were placed in 96-well plates (approximately 50,000 cells/well) for about 24 h before the experiment. […] After incubation, cells were washed 3 times with 100 μL/well ice-cold assay buffer, 150 μL/well MicroScint20 (PerkinElmer) was subsequently added before the plate was shaken for at least 1 h. The radioactivity of each well of the plate was measured on a TopCount NXT scintillation counter. […] Data presented are the pooled data of at least three independent experiments with three technical replicates if not stated otherwise in figure legends. Concentration–response curves were fitted by nonlinear regression to the sigmoidal concentration–response model with GraphPad Prism v 9.0.

mouse models = conditions: cited from earlier work
[1] = tested on: normal human astrocytes (NHA); assay: Confocal imaging of astrocyte morphology after incubation in PBS (non-GABA conditions); assay type: cell-based; conditions: 500 μM GABA with 500 μM compound 9 in PBS; 72 h
Procedure: To this end, we tested whether blocking the transport of GABA under experimental non-GABA extracellular conditions may impair the homeostasis of these cells. […] Afterward, the cells were stained to visualize actin filaments using confocal microscopy. […] Nevertheless, further kinetic studies are necessary to verify this hypothesis.
NHA was grown on a coverslip in a 35 mm culture dish. After treatment, the cells were fixed (4% paraformaldehyde) and permeabilized (0.1% Triton X-100). Then, the samples were stained with Phalloidin-Atto 565 (Sigma-Aldrich, Inc.) according to the manufacturer’s protocol. Laser confocal microscope Nikon Eclipse Ti-E A1R-Si and Nikon NIS Elements AR software were used for cell imaging.

[2] = tested on: SH-SY5Y neuroblastoma cells; conditions: 24 h
Procedure: The model used mimics certain aspects of neurodegenerative diseases, where GABAergic dysfunction and neuronal death are prominent features. […] The neuroprotection studies were performed to determine the ability of compound 9 to prevent MPP^+ (1-methyl-4-phenylpyridinium) toxicity at a concentration of 1 mM, which was coincubated with compound 9 for 24 h. MPP^+ is a well-established neurotoxin that selectively damages neurons, making it a commonly used agent to model aspects of neurodegenerative conditions in vitro. It induces oxidative stress and mitochondrial dysfunction, leading to cell death. Cell viability was detected by a standard MTS assay.
Neuroprotection studies were performed according to the procedure described previously.[27] In brief, SH-SY5Y CRL-2266 (American Type Culture Collection, Manassas, VG) were seeded in microplate at a concentration of 2.5 × 10^4 cells/well in 100 μL of culture medium and cultured for 24 h at 37 °C and 5% CO2. […] Next, MPP^+ was added at a final concentration of 1 mM and the cells were placed in the incubator. After 24 h of the compound coincubation with MPP^+, the CellTiter 96 AQueous Nonradioactive Cell Proliferation Assay (MTS) was performed. The test was purchased from Promega (Madison, WI). The absorbance was measured using a microplate reader EnSpire (PerkinElmer, Waltham, MA) at 490 nm. All results were shown as mean ± SD. The statistical significances were calculated by GraphPad Prism 6.0 software.

BGT1 = conditions: cited from earlier work
hBGT1 E52A = biological target: T2, hBGT1 E52A (Homo sapiens, UniProt P48065, E52A); design: method as in PMID 34595152; conditions: ref 12; cited from earlier work
T2 construct: host or cells: tsA201 cells (transformed HEK293), transient expression
T2 sequence (P48065 1-614 E52A): T1 sequence (P48065 1-614) with E52A

GABAA receptor = biological target: GABAA receptor; design: method as in PMID 34595152; conditions: agonist; cited from earlier work
[3] = tested on: SH-SY5Y neuroblastoma cells; assay: SH-SY5Y viability, MTS assay, 72 h; assay type: cell-based, human; conditions: 1 µM, reference cytostatic drug
Description: OC(=O)[C@H]1CNCC[C@@H]1S OC(=O)CCCCCCN1C=CN=C1
OC(=O)C1CCNCC1 N[C@]12C[C@H]1[C@@H](CC2)C(O)=O
OC(=O)C1=CCNCC1 N[C@H]1C[C@@H]1CC(O)=O
O[C@@H]1CNCC[C@H]1C(O)=O N[C@@H]1C[C@@H]1CC(O)=O
OC(=O)CCCC1=NC=CN1 N[C@H]1C[C@H]1CC(O)=O
OC(=O)\C=C\C1=NC=CN1 NC[C@H]1C[C@H]1C(O)=O
OC(=O)\C=C\C1=CNC=N1 NC[C@@H]1C[C@@H]1C(O)=O
OC(=O)\C=C\C1=CN=CN1 NC[C@@H]1C[C@H]1C(O)=O
OC(=O)CCC1=CNC=N1 NC[C@H]1C[C@@H]1C(O)=O
OC(=O)CCC1=CN=CN1 NC1=CC=C(C=N1)C(O)=O
OC(=O)CCN1C=CN=C1 NC1=NC=C(C=N1)C(O)=O
OC(=O)CCCC1=NC=CN1 NC(=N)N1CCC(CC1)C(O)=O
S2. IC50 determination at GAT3 stable GAT3-CHO, compound 9
Figure S1. IC 50 determination for compound 9. Data represent one of three independent experiments, each performed in three technical replicates.
S3. […]
The influence of compound 9 on viability of SH-SY5Y neuroblastoma cells was determined using Aqueous Non-Radioactive Cell Proliferation Assay. […] Upon adding MTS and following 2h incubation, cell viability was calculated and […]
The effect of compound 9 on viability and proliferation of SH-SY5Y was determined with CellTiter 96® Aqueous Non-Radioactive Cell Proliferation Assay (MTS, Promega, Madison, WI, USA). […] Next MTS was added in fresh medium and after 2h of incubation the absorbance was measured at 490 nm using a microplate reader EnSpire (PerkinElmer, Waltham, MA USA). All results were shown as mean ± SD calculated from two independent experiments. […]

**Q.** With `O=C(O)CC1CNCCO1` (stereo not drawn) [Compound 3] as the compound, how does the inhibition at 100 µM (hBGT1) read?
**A.** The inhibition at 100 µM was 40%.

**Q.** For `NCc1cc(C(=O)O)[nH]n1` [Compound 11], which inhibition at 100 µM (hBGT1) is on record?
**A.** Its inhibition at 100 µM is 26%.

**Q.** For `Cc1ccsc1C(=CCCN(C)C1CCCc2o[nH]c(=O)c21)c1sccc1C` (stereo not drawn) [EF1502], which anticonvulsant properties (mouse models; ref 13) is on record?
**A.** The anticonvulsant properties was “anticonvulsant properties”.

**Q.** And the “anticonvulsant effect when coadministered with tiagabine” value (mouse models; ref 14)?
**A.** The value was “synergistic effect”.

**Q.** Which “effect on compound 9-induced morphological changes of astrocytes” value [1] does the source give for `NCCCC(=O)O` [GABA, γ-Aminobutyric acid, reference compound] here?
**A.** The value was “prevented these changes”.

**Q.** What about the “cell viability compared to MPP+ alone” value ([2]; GABA 10 μM, positive control, 1 mM MPP+) of the same compound?
**A.** Its value is “significantly increased cell viability”.

**Q.** With `C[n+]1ccc(-c2ccccc2)cc1` [MPP^+, 1-methyl-4-phenylpyridinium, reference compound] as the compound, how does the “viability of SH-SY5Y cells” value ([2]; neurotoxin 1 mM) read?
**A.** Its value is “significantly reduced the viability”.

**Q.** With `N[C@@]12CC[C@H](C(=O)O)[C@@H]1C2` [bicyclo-GABA, (1S,2S,5R)-5-aminobicyclo[3.1.0]hexane-2-carboxylic acid] as the compound, how does the pIC50 (BGT1; ref 11) read?
**A.** Its pIC50 is 6.23.

**Q.** And the pIC50 (BGT1; ref 12)?
**A.** The pIC50 was 5.82.

**Q.** And the “change in activity on substitution of Glu52 with alanine” value (hBGT1 E52A)?
**A.** Its value is “drastic increase in activity”.

**Q.** What about the pEC50 (GABAA receptor) of the same compound?
**A.** Its pEC50 is 5.29.

**Q.** With `COc1cccc2c1C(=O)c1c(O)c3c(c(O)c1C2=O)C[C@@](O)(C(=O)CO)C[C@@H]3O[C@H]1C[C@H](N)[C@H](O)[C@H](C)O1` [doxorubicin, reference compound] as the compound, how does the “impact on SH-SY5Y viability” value [3] read?
**A.** Its value is “significantly decreased SH-SY5Y viability”.
